From PMC11365428 (The Journal of Biological Chemistry, 2024)
pEC50: −log10 of the molar value. Non-standard residues stand in square brackets, D forms with d. Residues, ends and D or L forms follow the SMILES beside them. pGlu = O=C1CC[C@@H](C(=O)O)N1

Assays:
Format in all cases: cell-based
apTKRPR-A 5A = apTKRPR-A 5A (Aplysia californica, UniProt A0AAU7SSZ1, S377A/S394A/T379A/T387A/T393A); assay: IP1 accumulation assay, Ser/Thr-to-Ala mutant apTKRPR-A 5A
Description: (§1) To express putative Aplysia receptors transiently in CHO-K1 cells, the cDNAs were subcloned into the pcDNA3.1(+) or pcDNA3.1(+)-FLAG (for ELISA experiments only, see “Cell surface expression analysis by ELISA” section) expression vector. On the day before transfection, the CHO-K1 cells were passaged into 60 mm diameter tissue culture–treated dishes, and the transfection experiments were performed when the cells were grown to 70 to 90% confluence. CHO-K1 cells were transfected with the cDNA plasmid constructs using Turbofect Transfection reagent (Thermo Fisher Scientific, R0531), following the manufacturer’s instructions. In brief, 4 μg of the putative receptor plasmids [in pcDNA3.1(+) or pcDNA3.1(+)-FLAG] were mixed with 400 μl of Opti-MEM (Gibco, 11058021), followed by the addition of 15 μl of TurboFect Transfection reagent and incubated at room temperature for 15 min. […]
(§2) The next day, transfected cells were trypsinized and reseeded in an opaque white 96-well half-area (Corning, 3688) or 384-well tissue culture–treated plates (Corning, 3570) at a density of 20,000 cells/well in F-12K and 10% FBS and incubated at 37 °C in a humidified incubator containing 5% CO2 overnight. On the third day, the activation of the putative receptors was detected by monitoring intracellular IP1 concentration using an IP-One Gq kit (Cisbio, 62IPAPEB) in Tecan Spark. […]

apTKRPR-B 14A = apTKRPR-B 14A (Aplysia californica, UniProt A0AAU7STS1, S392A/S396A/S399A/S407A/S415A/S421A/S426A/S434A/T393A/T411A/T412A/T422A/T424A/T435A); assay: IP1 accumulation assay, Ser/Thr-to-Ala mutant apTKRPR-B 14A
Sequence of apTKRPR-B 14A (A0AAU7STS1 entry or part of it with the stated changes): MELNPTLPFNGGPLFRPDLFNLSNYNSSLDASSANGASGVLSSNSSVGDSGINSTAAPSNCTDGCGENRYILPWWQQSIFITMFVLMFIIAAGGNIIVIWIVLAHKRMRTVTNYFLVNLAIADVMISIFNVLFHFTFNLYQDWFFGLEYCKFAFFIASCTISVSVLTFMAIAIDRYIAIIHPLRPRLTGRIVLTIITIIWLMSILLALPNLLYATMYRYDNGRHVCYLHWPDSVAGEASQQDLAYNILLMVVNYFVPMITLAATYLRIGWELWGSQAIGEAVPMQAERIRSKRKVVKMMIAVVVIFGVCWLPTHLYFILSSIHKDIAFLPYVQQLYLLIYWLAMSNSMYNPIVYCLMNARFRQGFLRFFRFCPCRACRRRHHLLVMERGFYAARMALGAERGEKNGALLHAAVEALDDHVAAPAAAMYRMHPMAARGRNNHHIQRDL
Description: as §1, §2

apTKRPR-B T391 = apTKRPR-B T391 (Aplysia californica, UniProt A0AAU7STS1, DEL392-447); assay: IP1 accumulation assay, C-terminal truncate apTKRPR-B T391
Description: as §1, §2

apTKRPR-B = molecular target: T1, apTKRPR-B (Aplysia californica, UniProt A0AAU7STS1); assay: Receptor desensitization assay, protocol 2 (repeated agonist exposure), apTKRPR-B; conditions: 10 μM pretreatment 2-60 min without LiCl, wash, second 10 μM application for 15 min with LiCl; % of control; n = 5
T1 sequence (A0AAU7STS1 1-447): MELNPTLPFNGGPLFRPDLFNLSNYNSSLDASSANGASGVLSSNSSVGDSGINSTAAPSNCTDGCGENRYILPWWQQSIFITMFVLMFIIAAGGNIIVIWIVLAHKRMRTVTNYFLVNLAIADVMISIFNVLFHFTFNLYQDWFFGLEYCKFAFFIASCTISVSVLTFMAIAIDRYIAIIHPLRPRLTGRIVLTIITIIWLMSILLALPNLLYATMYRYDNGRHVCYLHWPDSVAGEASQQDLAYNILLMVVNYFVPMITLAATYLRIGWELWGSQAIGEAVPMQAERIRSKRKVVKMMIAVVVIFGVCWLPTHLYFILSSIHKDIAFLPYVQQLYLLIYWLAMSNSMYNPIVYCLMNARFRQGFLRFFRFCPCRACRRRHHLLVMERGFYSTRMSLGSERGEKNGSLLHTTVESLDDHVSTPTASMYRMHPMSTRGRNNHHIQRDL
Description: Therefore, we adopted two protocols to study the desensitization of apTKRPRs. The protocols were performed using a procedure modified from previous work ([87], [88], [89]).
Protocol 2 ([89]): To simulate repeated stimulation with an agonist, we examined agonist-induced desensitization by quantifying the accumulation level of IP1 after two applications of the agonist/ligand. Because the IP1 accumulation assay involves using LiCl to stop the degradation of IP1, in this protocol, LiCl was applied only during the second application of the agonist. Specifically, to elicit desensitization, cells were first exposed to 10 μM apTKRP-2b in the absence of LiCl for various pretreatment durations (pretreatment stage/phase Ⅰ). After this agonist exposure, cells were washed (three times) rapidly with PBS (phase Ⅱ), and the wash was consistently performed in each experiment. Responsiveness of the receptor was then assessed by measuring intracellular concentrations of IP1 accumulation in response to a second application of 10 μM apTKRP-2b for 15 min in the presence of LiCl (phase Ⅲ) (Fig. S11).

apTKRPR-A T376 = apTKRPR-A T376 (Aplysia californica, UniProt A0AAU7SSZ1, DEL377-398); assay: IP1 accumulation assay, C-terminal truncate apTKRPR-A T376
Sequence of apTKRPR-A T376 (A0AAU7SSZ1 entry or part of it, stated change not applied): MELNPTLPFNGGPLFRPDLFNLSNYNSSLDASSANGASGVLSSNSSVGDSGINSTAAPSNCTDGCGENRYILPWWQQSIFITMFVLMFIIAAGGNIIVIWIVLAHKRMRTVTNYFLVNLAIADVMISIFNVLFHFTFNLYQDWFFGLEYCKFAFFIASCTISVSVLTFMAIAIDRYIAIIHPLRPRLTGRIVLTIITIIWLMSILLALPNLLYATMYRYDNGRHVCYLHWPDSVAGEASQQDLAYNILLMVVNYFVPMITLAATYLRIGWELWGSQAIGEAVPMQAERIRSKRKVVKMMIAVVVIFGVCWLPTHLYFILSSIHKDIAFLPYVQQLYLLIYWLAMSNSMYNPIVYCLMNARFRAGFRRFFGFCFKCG
Description: as §1, §2

Sequence of apTKRPR-A 5A (A0AAU7SSZ1 entry or part of it S377A/T379A/T387A/T393A/S394A): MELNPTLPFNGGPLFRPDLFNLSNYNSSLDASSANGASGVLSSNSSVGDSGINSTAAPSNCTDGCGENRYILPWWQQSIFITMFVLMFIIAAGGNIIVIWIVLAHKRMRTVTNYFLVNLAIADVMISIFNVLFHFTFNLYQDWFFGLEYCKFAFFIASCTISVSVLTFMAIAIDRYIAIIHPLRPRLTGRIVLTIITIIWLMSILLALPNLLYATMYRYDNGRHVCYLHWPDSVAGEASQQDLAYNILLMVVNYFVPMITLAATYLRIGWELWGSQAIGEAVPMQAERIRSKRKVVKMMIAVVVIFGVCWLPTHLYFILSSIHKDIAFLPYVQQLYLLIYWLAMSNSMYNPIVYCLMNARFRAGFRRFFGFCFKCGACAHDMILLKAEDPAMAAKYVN

CC(C)C[C@H](NC(=O)[C@H](Cc1c[nH]cn1)NC(=O)[C@@H]1CCCN1C(=O)[C@@H]1CCC(=O)N1)C(=O)NCC(=O)N[C@@H](Cc1ccccc1)C(=O)N[C@@H](Cc1c[nH]cn1)C(=O)NCC(=O)N[C@@H](CO)C(=O)N[C@@H](CCCNC(=N)N)C(N)=O [apTKRP-2b] ([pGlu]PHLGFHGSR-NH2)
pEC50 (apTKRPR-A 5A): 7.23 | pEC50 (apTKRPR-B 14A): 7.61 | pEC50 (apTKRPR-B T391): 7.67 | IP1 accumulation after pretreatment, apTKRPR-B (protocol 2) (apTKRPR-B): IP1 accumulation was less after the second exposure | pEC50 (apTKRPR-A T376): 7.74
